From patent publication US20020115661A1, “Method for treating chronic obstructive pulmonary disease” (priority 2000, published 2002)

Assays:
Solubility = format: physicochemical
Protocol: The compound acts as a base, raising the pH of the water to a measured value of 8.9 for a 100 mg/mL solution.
CI-1034 is insoluble in hexane and isopropanol.

rat ETB receptors = target: T1, rat ETB receptors (Rattus norvegicus, UniProt P21451); test: [125I]ET-3 binding, membranes from rat cerebellum
T1 construct: from tissue
T1 sequence (P21451 27-442): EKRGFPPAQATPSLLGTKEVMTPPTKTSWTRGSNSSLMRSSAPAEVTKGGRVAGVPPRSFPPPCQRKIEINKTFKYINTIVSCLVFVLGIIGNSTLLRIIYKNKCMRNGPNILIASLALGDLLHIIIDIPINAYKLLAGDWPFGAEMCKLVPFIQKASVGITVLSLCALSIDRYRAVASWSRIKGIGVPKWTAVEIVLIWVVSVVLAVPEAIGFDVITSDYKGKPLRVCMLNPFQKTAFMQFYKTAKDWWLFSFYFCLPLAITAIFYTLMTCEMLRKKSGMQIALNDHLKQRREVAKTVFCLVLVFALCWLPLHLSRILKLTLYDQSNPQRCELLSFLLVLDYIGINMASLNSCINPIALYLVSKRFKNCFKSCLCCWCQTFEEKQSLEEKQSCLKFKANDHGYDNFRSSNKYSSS
From the text: Relative binding activities are given below in TABLE 3.

[1] = test system: chronic hypoxia-induced pulmonary hypertension and RV hypertrophy; test: Pulmonary hypertension and right ventricular hypertrophy in rats exposed to chronic hypoxia; format: in vivo, rat; conditions: for average MPAP: hypoxic rats, days 10-20 of hypoxia
From the text: Rats were exposed to hypoxia for an additional 10 days during treatment (20 days total). A separate group of age-matched rats treated with diet alone (20 days) and no exposure to hypoxia served as normoxic controls. Blood samples, pulmonary artery pressures, and cardiac right and left ventricles were collected at the end of the 20-day protocol.
Rats exposed to 20 days of hypoxia had MPAP of 43±2 mm Hg which averaged 30 mm Hg higher than normal (13±0 mm Hg).
Heparinized plasma samples were collected approximately 1 hour before MPAP was measured.
The right ventricular hypertrophic response to hypoxia was estimated by comparing the ratio of right ventricular free wall weight to left ventricle plus septum weight (RV/LV+S) between hypoxic and normoxic control groups. Using this index, rats exposed to hypoxia had right ventricular free walls that were more than twice control (0.57±0.03 versus 0.24±0.1).

human ETB receptors = target: T2, human ETB receptors (Homo sapiens, UniProt P24530); test: [125I]ET-3 binding to recombinant human ETB receptors (CHO cell membranes); conditions: [125I]ET-3; CHO cell membranes with cloned human ETB receptors; read-out: ETB, IC50
T2 construct: expressed in transfected cells; host or cells: CHO cells
T2 sequence (P24530 27-442): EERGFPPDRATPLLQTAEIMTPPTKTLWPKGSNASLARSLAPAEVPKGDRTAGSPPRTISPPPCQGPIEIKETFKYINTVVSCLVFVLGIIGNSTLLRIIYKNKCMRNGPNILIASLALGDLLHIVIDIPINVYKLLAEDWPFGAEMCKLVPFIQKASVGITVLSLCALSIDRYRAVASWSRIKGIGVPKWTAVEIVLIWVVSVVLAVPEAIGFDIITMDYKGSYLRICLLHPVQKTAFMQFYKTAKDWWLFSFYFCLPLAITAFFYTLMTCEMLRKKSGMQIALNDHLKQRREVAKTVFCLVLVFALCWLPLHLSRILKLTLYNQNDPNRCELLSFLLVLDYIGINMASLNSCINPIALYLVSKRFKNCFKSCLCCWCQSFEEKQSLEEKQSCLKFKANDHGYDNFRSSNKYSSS

[2] = test system: rat, dog, monkey, and human hepatocyte preparations; test: Incubations with hepatocyte preparations; format: in vitro ADME; conditions: monkey, and human hepatocytes
[3] = CI-1034 plasma concentration after oral dose in rats; format: in vivo; conditions: rat, 24 hours after 30 mg/kg oral dose
From the text: (§1) Vehicle-treated rats responded to the bET-1 challenge with peak increases in mean arterial pressure (MAP) of 58±2 mm Hg (N=7); baseline MAP was 82±5 mm Hg.

[4] = test system: bET-1 pressor response (ETA receptors); test: Blockade of bET-1 induced pressor responses in rats; format: in vivo, rat
From the text: as §1

[5] = target: T3, human ETA receptor signaling (Homo sapiens, UniProt P25101); test: ET-1 induced Ca2+ transient (Calcium Green-1) in human pulmonary artery smooth muscle cells; format: cell-based; conditions: hPASMC, ET-1 100 nM; read-out: IC50, inhibition of ET-1 Ca2+ response
T3 construct: endogenous in cells; host or cells: human pulmonary artery smooth muscle cells (hPASMC)
T3 sequence (P25101 21-427): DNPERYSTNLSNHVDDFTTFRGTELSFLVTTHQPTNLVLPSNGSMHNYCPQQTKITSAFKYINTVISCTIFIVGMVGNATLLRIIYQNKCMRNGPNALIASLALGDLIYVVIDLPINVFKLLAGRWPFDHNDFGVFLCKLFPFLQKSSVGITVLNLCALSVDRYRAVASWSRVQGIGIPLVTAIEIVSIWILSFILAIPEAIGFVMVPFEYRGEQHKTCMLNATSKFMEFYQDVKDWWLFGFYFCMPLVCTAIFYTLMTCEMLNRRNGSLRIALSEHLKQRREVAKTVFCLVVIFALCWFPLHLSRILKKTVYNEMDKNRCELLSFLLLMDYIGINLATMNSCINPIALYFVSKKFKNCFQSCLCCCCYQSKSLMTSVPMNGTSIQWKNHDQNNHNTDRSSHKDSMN

[6] = Plasma CI-1034 concentrations in anesthetized dogs; format: in vivo, dog; conditions: for concentration at 5 min: plasma, intravenous
Protocol: Each animal received each treatment and served as its own control, with 7 days between treatments. […] Pulmonary function parameters were evaluated for 60 minutes after each dose, and included minute volume, respiratory rate, resistance, compliance, peak inspiratory and expiratory volumes, and tidal volume. Indirect blood pressure measurements were made periodically throughout the pulmonary data collection period since endothelin receptor antagonists are known to induce hypotension.
Plasma concentration in this dog 5 minutes postdose was 1960 μg/mL.

With CCc1cc(C2=C(C(=O)[O-])N(c3ccccc3C(F)(F)F)S(=O)(=O)c3ccccc32)cc2c1OCO2.[K+] [CI-1034, 4-(7-Ethyl-1,3-benzodioxol-5-yl)-2-[2-(trifluoromethyl)phenyl]-2H-1 ,2-benzothiazine-3-carboxylic acid 1,1-dioxide monopotassium salt] the solubility (Solubility; 0.05 M pH 4 acetate buffer) was “very slightly soluble”, the solubility (Solubility; 0.05 M pH 7.4 potassium phosphate buffer) was “very slightly soluble” and the solubility (Solubility; 0.1N HCl) was “insoluble”. The “pH of aqueous solution” value (Solubility; 100 mg/mL solution in water) was 8.9, the “concentration after 24 hours” value (Solubility; 0.5 M pH 7.4 potassium phosphate buffer, after 24 hours) was “approximately 0.8 mg/mL” and the “concentration reached on rapid dissolution” value (Solubility; 0.5 M pH 7.4 potassium phosphate buffer, initial) was “approximately 13 mg/mL”. The solubility (Solubility; acetonitrile) was “slightly soluble”, the solubility (Solubility; chloroform) was “very slightly soluble” and the solubility (Solubility; dichloromethane) was “very slightly soluble”. The solubility (Solubility; dimethylsulfoxide) was “freely soluble”, the solubility (Solubility; ethanol) was “sparingly soluble” and the solubility (Solubility; hexane) was “insoluble”. For the same molecule, the solubility (Solubility; isopropanol) was “insoluble”, the solubility (Solubility; methanol) was “freely soluble” and the solubility (Solubility; tetrahydrofuran) was “slightly soluble”. For the same molecule, the solubility (Solubility; water) was “freely soluble”, the IC50 (rat ETB receptors) was 230 nM and the EC50 ([1]; Rattus norvegicus, simple Emax model, chronic hypoxia, read-out: plasma concentration predicted to produce half-maximal effect) was 0.32 ± 0.25 µg/mL. The “average MPAP” value ([1]; 25 mg/kg/day in diet) was 37±2 mm Hg, the “average MPAP” value ([1]; 50 mg/kg/day in diet) was 33±0 mm Hg and the “average MPAP” value ([1]; 100 mg/kg/day in diet) was 29±2 mm Hg. The “predicted maximal antihypertensive effect” value ([1]; simple Emax model, chronic hypoxia) was 60%±18%, the IC50 (human ETB receptors) was 1600 nM and the “metabolic profiles across species” value [2] was “qualitatively similar metabolic profiles”. For the same molecule, the concentration at 24 h [3] was 0.16 ± 0.01 µg/mL, the “peak pressor response to bET-1 challenge (MAP increase)” value ([4]; 30 mg/kg oral gavage 24 hours before bET-1 1 nmol/kg IV) was 35±7 mm Hg and the “inhibition of the bET-1 pressor response compared to vehicle” value ([4]; 30 mg/kg oral gavage 24 hours before challenge, p<0.05) was 39%. For the same molecule, the IC50 [5] was 0.22 nM, the “plasma concentration versus dose” value ([6]; anesthetized dogs) was “increased proportionally with dose” and the “Plasma Concentration” value ([6]; dog, 180 mg/kg, 5 minutes postdose, N = 1) was 1960 µg/mL. The “exposure relative to projected human therapeutic Cmax of […]” value ([6]; dogs, 30 and 60 mg/kg, plasma 5 minutes postdose) was “at least 940 times”, the concentration at 5 min ([6]; dog, 30 mg/kg, 5 minutes postdose) was 301 µg/mL and the concentration at 5 min ([6]; dog, 60 mg/kg, 5 minutes postdose) was 574 µg/mL.
